Experimental data reported in ChEMBL document CHEMBL1201862, “PubChem BioAssay data set” (2004).
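Cultured in 96-well plates, cells were exposed to test compound for 48 hours across five concentrations. GI50 is the concentration that inhibits growth by half.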 Activity calls are given as the source filed them. No stated cut-off is given here; in the data, active = GI50 up to about 1.1 µM and inactive = higher.

Legend:
Assay in all cases: inhibition of tumour cell growth, NCI panel, 48 h
NCI-H460 = system: NCI-H460
NCI-H23 = system: NCI-H23
HOP-92 = system: HOP-92
HCT-116 = system: HCT-116
K562 = system: K562
SF-295 = system: SF-295
ACHN = system: ACHN
HT-29 = system: HT-29
786-0 = system: 786-0
A549 = system: A549
IGROV-1 = system: IGROV-1
NCI-H522 = system: NCI-H522
SN12C = system: SN12C
RXF 393 = system: RXF 393
TK-10 = system: TK-10

Measured: GI50

Cc1ccc(/N=N/c2c(-c3ccccc3)nn(C(=O)CC(=O)Nc3ccc(Cl)cc3)c2-c2ccccc2)cc1
inactive: NCI-H460 > 100 µM | NCI-H23 44.2 µM | HOP-92 23.9 µM | HCT-116 61.5 µM | K562 42.1 µM | SF-295 24.4 µM | ACHN 79.6 µM | HT-29 65.3 µM | 786-0 36.5 µM | A549 78.9 µM | IGROV-1 > 100 µM | NCI-H522 37.8 µM | SN12C > 100 µM | RXF 393 28.4 µM

CC1c2[nH]c3ccccc3c2CCN1O (configuration not stated)
inactive: NCI-H23 > 100 µM | HOP-92 > 100 µM | HCT-116 > 100 µM | K562 > 100 µM | SF-295 > 100 µM | ACHN > 100 µM | TK-10 > 100 µM | HT-29 > 100 µM | 786-0 > 100 µM | A549 > 100 µM | IGROV-1 > 100 µM | NCI-H522 > 100 µM | SN12C > 100 µM | RXF 393 > 100 µM

CN(C)c1n/c(=N/c2ccc3c(c2)OCO3)ss1
inactive: NCI-H460 47.4 µM | NCI-H23 66.4 µM | HOP-92 56.5 µM | HCT-116 49 µM | K562 34.8 µM | SF-295 > 100 µM | ACHN 84.9 µM | TK-10 > 100 µM | HT-29 38.5 µM | 786-0 70.6 µM | A549 44.6 µM | IGROV-1 > 100 µM | NCI-H522 26.7 µM | SN12C 73.6 µM | RXF 393 96.4 µM

O=C(/C=C/c1ccc(Cl)c(Cl)c1)C1CCC(Cl)CC1 (configuration not stated)
inactive: NCI-H460 23.2 µM | NCI-H23 17.9 µM | HOP-92 36.7 µM | HCT-116 11.8 µM | SF-295 21 µM | ACHN 17.1 µM | TK-10 32.7 µM | HT-29 16.3 µM | 786-0 16.8 µM | A549 20 µM | IGROV-1 17.1 µM | NCI-H522 16.7 µM | SN12C 17.7 µM | RXF 393 17.9 µM

CC1C[C@H](C)CC(C(O)CC2CC(=O)N(Cc3ccccc3)C(=O)C2)C1O (some centres not stated)
inactive: NCI-H460 > 100 µM | NCI-H23 2.65 µM | HOP-92 > 100 µM | HCT-116 > 100 µM | K562 > 100 µM | SF-295 > 100 µM | ACHN > 100 µM | TK-10 > 100 µM | HT-29 > 100 µM | 786-0 > 100 µM | A549 > 100 µM | IGROV-1 > 100 µM | NCI-H522 > 100 µM | SN12C > 100 µM | RXF 393 > 100 µM
